23 compounds from patent US10689377B2 (Mirati Therapeutics, Inc., priority 2017, dated 2020) can be followed below.

Counter-ions that a name gives are not always drawn.

KRas G12C, sequence (P01116 1-188 isoform P01116-2 G12C): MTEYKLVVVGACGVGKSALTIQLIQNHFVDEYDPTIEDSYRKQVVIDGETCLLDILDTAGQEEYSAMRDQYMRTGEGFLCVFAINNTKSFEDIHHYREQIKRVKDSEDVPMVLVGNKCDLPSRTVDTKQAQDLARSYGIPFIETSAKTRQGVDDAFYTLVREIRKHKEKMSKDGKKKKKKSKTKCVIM

The target of the experiment is KRas G12C (Homo sapiens, UniProt P01116, G12C). Briefly: Cellular inhibition of KRas G12C measured by Phospho-ERK in NCI-H358 cells. The experiment is classed as cell-based. The note with it: pERK(Thr202/Tyr204) normalized with GAPDH, NCI-H358 cells, 3 hours; read-out: IC50. How it is done:
Cells were plated in poly-D-Lysine coated 96-well plates at a concentration of 50,000 cells/well and allowed to attach for 8-12 hours. Diluted compounds were then added at a final concentration of 0.5% DMSO. After 3 hours, the medium was removed, 150 μL of 4% formaldehyde was added and the plates were incubated for 20 minutes. The plates were washed with PBS, and permeabilized using 150 μL of ice cold 100% methanol for 10 minutes. Non-specific antibody binding to the plates was blocked using 100 μL Licor Blocking Buffer (Li-Cor Biotechnology, Lincoln Nebr.) for 1 hour at room temperature. Positive control samples and samples lacking cells were parallel processed with test samples as standards.
The amount Phospho-ERK was determined using an antibody specific for the phosphorylated form of ERK and compared to the amount of GAPDH. […] The plates were incubated for 2 hours at room temperature. The plates were washed with PBS+0.05% Tween 20.
Secondary antibodies used to visualize primary antibodies were added as follows: Anti-rabbit-680 diluted 1:1000 and Anti-mouse-800 diluted 1:1000 in Licor Block+0.05% Tween 20 and incubated for 1 hour at room temperature. The plates were washed with PBS+0.05% Tween 20. A 100 μL aliquot of PBS was added to each well and the plates were read on a LICOR AERIUS plate reader.
The pERK(Thr202/Tyr204) signal was normalized with the GAPDH signal and percent of DMSO control values were calculated. IC50 values were generated using a 4 parameter fit of the dose response curve. Key: “A”≥0.0001-≤1 μM; “B”>1 μM and ND=not determined.
For `C=CC(=O)N1CCN(c2nc(OC[C@H]3CCCN3CC)nc3c2CCN(c2cccc4ccccc24)C3)C[C@@H]1CC#N` [Example 334, 2-[(2S)-4-[2-[[(2R)-1-ethylpyrrolidin-2-yl]methoxy]-7-(1-naphthyl)-6,8-dihydro-5H-pyrido[3,4-d]pyrimidin-4-yl]-1-prop-2-enoyl-piperazin-2-yl]acetonitrile], the IC50 (in general, the point on the concentration scale where inhibition reaches its midpoint) fell in the range of 0.1 to 1000 nM.

With `C=CC(=O)N1CCN(c2nc(OC(C)CNC)nc3c2CCN(c2cc(O)cc4ccccc24)C3)CC1` (centres unmarked) [Example 70, 1-(4-(7-(3-hydroxynaphthalen-1-yl)-2-((1-(methylamino)propan-2-yl)oxy)-5,6,7,8-tetrahydropyrido[3,4-d]pyrimidin-4-yl)piperazin-1-yl)prop-2-en-1-one], the IC50 is more than 1000 nM.

As for `C=CC(=O)N1CCN(c2nc(OC[C@@H]3CCCN3C)nc3c2CCN(c2cccc4c(F)cccc24)C3)CC1CC#N` (stereo partly drawn) [Example 287, 2-[4-[7-(5-fluoro-1-naphthyl)-2-[[(2S)-1-methylpyrrolidin-2-yl]methoxy]-6,8-dihydro-5H-pyrido[3,4-d]pyrimidin-4-yl]-1-prop-2-enoyl-piperazin-2-yl]acetonitrile], the IC50 lay within 0.1 to 1000 nM.

For the compound `C=CC(=O)N1CCN(c2nc(OC[C@@H]3C[C@@H](OC)CN3C)nc3c2CCN(c2cccc4ccccc24)C3)C[C@@H]1CC#N` [Example 327, 2-((S)-1-acryloyl-4-(2-(((2S,4R)-4-methoxy-1-methylpyrrolidin-2-yl)methoxy)-7-(naphthalen-1-yl)-5,6,7,8-tetrahydropyrido[3,4-d]pyrimidin-4-yl)piperazin-2-yl)acetonitrile], the IC50 is 0.1 to 1000 nM.

Take `C=CC(=O)N1CCN(c2nc(O[C@H](C)CN3CCOCC3)nc3c2CCN(c2cc(O)cc4ccccc24)C3)CC1` [Example 56, (R)-1-(4-(7-(3-hydroxynaphthalen-1-yl)-2-((1-morpholinopropan-2-yl)oxy)-5,6,7,8-tetrahydropyrido[3,4-d]pyrimidin-4-yl)piperazin-1-yl)prop-2-en-1-one]: the 50% inhibitory concentration (IC50) was in the range of 0.1 to 1000 nM.

For the compound `Cc1cccc2cccc(N3CCc4c(nc(OC[C@@H]5CCCN5C)nc4N4CCN(C(=O)/C=C/C(=O)N(C)C)[C@@H](CC#N)C4)C3)c12` [Example 499, (E)-4-((S)-2-(cyanomethyl)-4-(7-(8-methylnaphthalen-1-yl)-2-(((S)-1-methylpyrrolidin-2-yl)methoxy)-5,6,7,8-tetrahydropyrido[3,4-d]pyrimidin-4-yl)piperazin-1-yl)-N,N-dimethyl-4-oxobut-2-enamide], the IC50 lay within 0.1 to 1000 nM.

Turning to `C=CC(=O)N1CCN(c2nc(OC[C@@H]3CCCN3C)nc3c2CCN(c2ccc(F)cc2C(F)(F)F)C3)CC1CC#N` (some centres unmarked) [Example 276], the IC50 fell in the range of 0.1 to 1000 nM.

For `C=CC(=O)N1CCN(c2nc(OCCN(C)C)nc3c2CCN(c2ccccc2C(F)(F)F)C3)CC1CC#N` (centres unmarked) [Example 296, 2-[4-[2-[2-(dimethylamino)ethoxy]-7-[2-(trifluoromethyl)phenyl]-6,8-dihydro-5H-pyrido[3,4-d]pyrimidin-4-yl]-1-prop-2-enoyl-piperazin-2-yl]acetonitrile], the IC50 was in the range of 0.1 to 1000 nM.

Regarding `C=CC(=O)N1CCN(c2nc(OCCN(C)C)nc3c2CCN(c2cc(O)cc4ccccc24)C3)C(CCO)C1` (centres unmarked) [Example 172, 1-(4-(2-(2-(dimethylamino)ethoxy)-7-(3-hydroxynaphthalen-1-yl)-5,6,7,8-tetrahydropyrido[3,4-d]pyrimidin-4-yl)-3-(2-hydroxyethyl)piperazin-1-yl)prop-2-en-1-one], the IC50 was more than 1000 nM.

In the case of `C=CC(=O)N1CCN(c2nc(OCCCN3CCOCC3)nc3c2CCN(c2cc(O)cc(C)c2C)C3)CC1` [Example 213, 1-(4-(7-(5-hydroxy-2,3-dimethylphenyl)-2-(3-morpholinopropoxy)-5,6,7,8-tetrahydropyrido[3,4-d]pyrimidin-4-yl)piperazin-1-yl)prop-2-en-1-one], the concentration for half-maximal inhibition (IC50) is more than 1000 nM.

As to `C=CC(=O)N1CCN(c2nc(OC[C@H]3CN(C)CCO3)nc3c2CCN(c2cccc4ccccc24)C3)C[C@@H]1CC#N` [Example 450, 2-((S)-1-Acryloyl-4-(2-(((R)-4-methylmorpholin-2-yl)methoxy)-7-(naphthalen-1-yl)-5,6,7,8-tetrahydropyrido[3,4-d]pyrimidin-4-yl)piperazin-2-yl)acetonitrile], the IC50 fell in the range of 0.1 to 1000 nM.

As for `C=CC(=O)N1CCN(c2nc(N3CCN(CCO)CC3)nc3c2CCN(c2cc(O)cc4ccccc24)C3)CC1` [Example 26, 1-(4-(2-(4-(2-hydroxyethyl)piperazin-1-yl)-7-(3-hydroxynaphthalen-1-yl)-5,6,7,8-tetrahydropyrido[3,4-d]pyrimidin-4-yl)piperazin-1-yl)prop-2-en-1-one], the concentration for half-maximal inhibition (IC50) is more than 1000 nM.

For the compound `C=CC(=O)N1CCN(c2nc(OC[C@@H]3CCN(C)C3)nc3c2CCN(c2cc(O)cc4ccccc24)C3)CC1CC#N` (stereo partly drawn) [Example 179, 2-[4-[7-(3-hydroxy-1-naphthyl)-2-[[(3R)-1-methylpyrrolidin-3-yl]methoxy]-6,8-dihydro-5H-pyrido[3,4-d]pyrimidin-4-yl]-1-prop-2-enoyl-piperazin-2-yl]acetonitrile], the concentration for half-maximal inhibition (IC50) was 0.1 to 1000 nM.

As to `C=CC(=O)N1CCN(c2nc(OCC3CCN(CCO)C3)nc3c2CCN(c2cc(O)cc4ccccc24)C3)CC1` (centres unmarked) [Example 141, 1-[4-[2-[[1-(2-hydroxyethyl)pyrrolidin-3-yl]methoxy]-7-(3-hydroxy-1-naphthyl)-6,8-dihydro-5H-pyrido[3,4-d]pyrimidin-4-yl]piperazin-1-yl]prop-2-en-1-one], the IC50 is more than 1000 nM.

As to `C=CC(=O)N1CCN(c2nc(OCCCN3C[C@@H]4C[C@H]3CO4)nc3c2CCN(c2cccc4cccc(C)c24)C3)C[C@@H]1CC#N` [Example 369, 2-((S)-4-(2-(3-((1S,4S)-2-oxa-5-azabicyclo[2.2.1]heptan-5-yl)propoxy)-7-(8-methylnaphthalen-1-yl)-5,6,7,8-tetrahydropyrido[3,4-d]pyrimidin-4-yl)-1-acryloylpiperazin-2-yl)acetonitrile], the 50% inhibitory concentration (IC50) is 0.1 to 1000 nM.

`C=CC(=O)N1[C@H](C)CN(c2nc(OCCCN3CCOCC3)nc3c2CCN(c2cc(O)cc4ccccc24)C3)C[C@@H]1C` [Example 191, 1-((2S,6R)-4-(7-(3-hydroxynaphthalen-1-yl)-2-(3-morpholinopropoxy)-5,6,7,8-tetrahydropyrido[3,4-d]pyrimidin-4-yl)-2,6-dimethylpiperazin-1-yl)prop-2-en-1-one]: the IC50 is more than 1000 nM.

As for `C=CC(=O)N1CCN(c2nc(OCCCCN3CCOCC3)nc3c2CCN(c2cc(O)cc4ccccc24)C3)CC1` [Example 35, 1-(4-(7-(3-hydroxynaphthalen-1-yl)-2-(4-morpholinobutoxy)-5,6,7,8-tetrahydropyrido[3,4-d]pyrimidin-4-yl)piperazin-1-yl)prop-2-en-1-one trifluoroacetate], the IC50 was more than 1000 nM.

Regarding `C=CC(=O)N1CCN(c2nc(OC(C)CN(C)C)nc3c2CCN(c2cc(O)cc4ccccc24)C3)CC1` (centres unmarked) [Example 11, 1-(4-(2-((1-(dimethylamino)propan-2-yl)oxy)-7-(3-hydroxynaphthalen-1-yl)-5,6,7,8-tetrahydropyrido[3,4-d]pyrimidin-4-yl)piperazin-1-yl)prop-2-en-1-one], the IC50 lay in the range of 0.1 to 1000 nM.

With `C=CC(=O)N1CCN(c2nc(OC[C@@H]3CC(F)(F)CN3C)nc3c2CCN(c2cccc4cccc(Cl)c24)C3)C[C@@H]1CC#N` [Example 366, 2-[(2S)-4-[7-(8-chloro-1-naphthyl)-2-[[(2S)-4,4-difluoro-1-methyl-pyrrolidin-2-yl]methoxy]-6,8-dihydro-5H-pyrido[3,4-d]pyrimidin-4-yl]-1-prop-2-enoyl-piperazin-2-yl]acetonitrile], the IC50 was 0.1 to 1000 nM.

`C=CC(=O)N1CCN(c2nc(OC[C@H](O)CN3CCOCC3)nc3c2CCN(c2cc(O)cc4ccccc24)C3)CC1` (single isomer, unassigned) [Example 215]: the IC50 was more than 1000 nM.

For the compound `C=CC(=O)N1CCN(c2nc(OC[C@@H]3CCCN3CC)nc3c2CCN(c2ccc(F)c4ccccc24)C3)CC1CC#N` (stereo partly drawn) [Example 322, 2-(1-acryloyl-4-(2-(((S)-1-ethylpyrrolidin-2-yl)methoxy)-7-(4-fluoronaphthalen-1-yl)-5,6,7,8-tetrahydropyrido[3,4-d]pyrimidin-4-yl)piperazin-2-yl)acetonitrile], the IC50 is 0.1 to 1000 nM.

On to `C=CC(=O)N1CCN(c2nc(OC(C)CCN3CCOCC3)nc3c2CCN(c2cc(O)cc4ccccc24)C3)CC1` (centres unmarked) [Example 93, 1-(4-(7-(3-hydroxynaphthalen-1-yl)-2-((4-morpholinobutan-2-yl)oxy)-5,6,7,8-tetrahydropyrido[3,4-d]pyrimidin-4-yl)piperazin-1-yl)prop-2-en-1-one], for which the 50% inhibitory concentration (IC50) is more than 1000 nM.

In the case of `C=CC(=O)N1CCN(c2nc(OCCN3CCCC[C@H]3C)nc3c2CCN(c2cc(O)cc4ccccc24)C3)CC1` [Example 97, (R)-1-(4-(7-(3-hydroxynaphthalen-1-yl)-2-(2-(2-methylpiperidin-1-yl)ethoxy)-5,6,7,8-tetrahydropyrido[3,4-d]pyrimidin-4-yl)piperazin-1-yl)prop-2-en-1-one], the IC50 fell in the range of 0.1 to 1000 nM.
